The nature of data set [1]: physchem. The note with it: buffer, pH 7.4.
Data set [2] in a line: physchem.
The species entered for data set [3] is Mus musculus. Description: animal or person. Conditions: C57BL/6J.
The nature of data set [4]: in vitro. The note with it: human, Caco-2.
The species entered for data set [5] is Mus musculus. Description: animal or person. The note with it: C57BL/6J. The source holds these as a separate data set.
Data set [6] can be described thus: in vitro. The note with it: human, microsomes.
A short description of data set [7]: in vitro. Conditions: human, Caco-2. This is another data set of the same source.
A short description of data set [8]: in vitro. Conditions: rat, microsomes.
Data set [9] in a line: physchem. Conditions: pH 7.4.

Structures are written as SMILES. Values after ≈ are worked out from the molar mass of the structure shown.

One may read the logD as the decadic logarithm of the distribution of all forms, ionised or not, between an organic phase and buffer at a given pH. Read a high logD as a more lipophilic compound. The pKa is the pH at which an ionisable group is half protonated. Read a low pKa as a stronger acid or weaker base. In general, IC50 refers to the concentration at which inhibition is half-maximal. The term Papp A→B denotes the apparent permeability from the apical to the basolateral side of a cell layer. By microsomal CLint is commonly meant a measure of how fast metabolising enzymes remove a compound, apart from limits set by blood flow. By efflux ratio is commonly meant a quotient of directional permeabilities that is used to spot active efflux. What is called solubility is the dissolved amount per volume that the medium holds. Lower therefore signals little dissolved substance.

In [1], `COc1ccc(-c2nnc(C(=O)N3CCC(Oc4ccc(CN5CCC(O)C5)cc4)CC3)o2)cc1` (stereo not given) displayed a logD of 2. The same compound came in with a pKa in data set [2] of 8.9. In [3], inhibition was half-maximal at 293 nM (IC50). Also, in [4], the apparent permeability from apical to basolateral (Papp A→B) came to 36 ×10⁻⁶ cm/s.
In [1], `COc1ccc(-c2nnc(C(=O)N3CC(Oc4ccc(CN5CCC(C)(O)C5)cc4)C3)o2)cc1` (stereo not given) gave a pH-dependent lipophilicity (logD) of 1.6. Also, the pKa in data set [2] came out at 9. This compound had an IC50 in data set [5] of 35 nM. For the same compound, the Papp A→B in data set [4] is 42 ×10⁻⁶ cm/s. This compound also registered a microsomal CLint in data set [6] of 2.8 µL/min/mg.
`CN1CCN(Cc2ccc(OC3CN(C(=O)c4nnc(-c5ccccc5)o4)C3)cc2F)CC1` gave a logD in data set [1] of 2.1. For the same compound, the pKa in data set [2] was 8.4. In addition, in data set [4], the Papp A→B was found to be 46 ×10⁻⁶ cm/s. Moreover, the microsomal CLint in [6] was determined as 20 µL/min/mg. The efflux ratio in data set [7] amounted to 0.35.
As to `O=C(c1nnc(-c2ccccc2)o1)N1CC(Oc2ccc(CN3CC4(COC4)C3)cc2)C1`, in data set [1], the log distribution coefficient (logD) was determined as 1.8. This compound also registered an IC50 in [5] of 15 nM. Further, the apparent permeability from apical to basolateral (Papp A→B) in data set [4] is 79 ×10⁻⁶ cm/s.
Take `COc1ccc(-c2nnc(C(=O)N3CC(Oc4ccc(CN(C)C)cn4)C3)o2)cc1`: the log distribution coefficient (logD) in [1] came out at 1.8. Also, the pKa in data set [2] worked out at 8.5. Also, the microsomal CLint in data set [8] worked out at 145 µL/min/mg; in data set [6], 13 µL/min/mg.
On to `Cc1oc(-c2ccccc2)nc1C(=O)N1CCC(Oc2ccc(CN3CCCC3)cc2)CC1`, for which the logD in [1] amounted to 3. This compound had a solubility in [9] of 754 µM (≈ 336 µg/mL).
In turn, `COc1ccc(-c2nnc(C(=O)N3CC(Oc4ccc(CN5CCN(C)CC5)c(F)c4)C3)o2)cc1` gave a logD in data set [1] of 2.2. In [2], this compound returned a pKa of 8.4. In data set [4], this compound returned a Papp A→B of 46 ×10⁻⁶ cm/s. The compound further yielded a microsomal CLint in data set [6] of 36 µL/min/mg. Moreover, the efflux ratio in data set [7] was found to be 0.35.
In the case of `O=C(c1nnc(-c2ccccc2)o1)N1CC(Oc2ccc(CN3CC4(CCOC4)C3)cc2)C1`, in [1], the pH-dependent lipophilicity (logD) turned out to be 2.1. For the same compound, the pKa in [2] was found to be 8.6. In [6], this compound registered a microsomal CLint of 2 µL/min/mg.
In turn, `COc1ccc(-c2nnc(C(=O)N3CC(Oc4ccc(CN(C)C)cc4)C3)o2)cc1` showed a logD in [1] of 1.55. In addition, the pKa in data set [2] was determined as 8.9. Further, inhibition in [5] was half-maximal at 14 nM (IC50). Moreover, the microsomal CLint in [8] is 53 µL/min/mg; in data set [6], 17 µL/min/mg. The same compound came in with an apical-to-basolateral permeability (Papp A→B) in [4] of 67 ×10⁻⁶ cm/s.
Compound `COc1ccc(-c2nnc(C(=O)N3CCC(Oc4ccc(CN5CCCC5)cn4)CC3)o2)cc1` registered a pH-dependent lipophilicity (logD) in [1] of 2.3. Also, in data set [2], the pKa was determined as 9.2. In addition, the figures for the microsomal CLint in data set [8] and in data set [6] were 28 µL/min/mg and 24 µL/min/mg, respectively. Further, the Papp A→B in data set [4] amounted to 49 ×10⁻⁶ cm/s.
Compound `CN(Cc1ccc(OC2CN(C(=O)c3nnc(-c4ccccc4)o3)C2)cc1)CC1(C)COC1` gave a logD in [1] of 4. This compound also had a pKa in data set [2] of 8.5. In data set [6], this compound returned an intrinsic clearance (microsomal CLint) of 117 µL/min/mg.
In the case of `COc1ccc(-c2nnc(C(=O)N3CCC(Oc4ccc(CN5CCN(C)CC5)cc4)CC3)o2)cc1`, in data set [1], the logD stood at 2.5. For the same compound, the pKa in data set [2] stood at 8.5. Besides, in data set [4], the Papp A→B was 56 ×10⁻⁶ cm/s.
Consider `COc1ccc(-c2nnc(C(=O)N3CC(Oc4ccc(CN5CCOCC5)c(OC)c4)C3)o2)cc1`, for which the logD in [1] is 3.3. In addition, the pKa in data set [2] came to 7.5. The compound further came in with a Papp A→B in [4] of 51 ×10⁻⁶ cm/s. For the same compound, the microsomal CLint in data set [6] was 332 µL/min/mg.
In data set [1], `O=C(c1nnc(-c2ccccc2Cl)o1)N1CCC(Oc2ccc(CN3CCCC3)cc2)CC1` registered a logD of 2.7. This compound had a Papp A→B in [4] of 59 ×10⁻⁶ cm/s. Besides, the microsomal CLint in data set [6] stood at 13 µL/min/mg.
Consider `COc1ccc(-c2nnc(C(=O)N3CC(Oc4ccc(CN(C)C)c(F)c4)C3)o2)cc1`, for which, in data set [1], the logD came to 2.2. This compound returned a pKa in data set [2] of 8.6. The compound further returned an IC50 in data set [5] of 9 nM. Further, the intrinsic metabolic clearance (microsomal CLint) was found to be 218 µL/min/mg in data set [8] and 42 µL/min/mg in [6]. Also, the apparent permeability from apical to basolateral (Papp A→B) in data set [4] was found to be 62 ×10⁻⁶ cm/s. Moreover, in [7], the efflux ratio is 0.32.
As for `O=C(c1nnc(-c2ccccc2)o1)N1CCC(Oc2ccc(CN3CCCC3)cc2)CC1`, in data set [1], the pH-dependent lipophilicity (logD) stood at 2.2. The Papp A→B in [4] came to 55 ×10⁻⁶ cm/s. This compound returned a solubility in [9] of more than 100 µM.
In [1], `COc1ccc(-c2nnc(C(=O)N3CC(Oc4ccc(CN5CCCC56COC6)cc4)C3)o2)cc1` registered a pH-dependent lipophilicity (logD) of 3.9. Moreover, the microsomal CLint in data set [6] stood at 74 µL/min/mg.
For `O=C(c1nnc(-c2ccc(F)cc2)o1)N1CCC(Oc2ccc(CN3CCCC3)cc2)CC1`, the logD in [1] came out at 2.4. In data set [4], this compound came in with a Papp A→B of 52 ×10⁻⁶ cm/s. In addition, in [9], the solubility is more than 100 µM.
Compound `O=C(c1nnc(-c2ccc(OC(F)F)cc2)o1)N1CCC(Oc2ccc(CN3CCCC3)cc2)CC1` registered a log distribution coefficient (logD) in [1] of 2.9. The same compound came in with a Papp A→B in [4] of 50 ×10⁻⁶ cm/s. The compound further returned a microsomal CLint in data set [6] of 15 µL/min/mg.
With `O=C(c1nnc(-c2ccc(Cl)cc2)o1)N1CCC(Oc2ccc(CN3CCCC3)cc2)CC1`, the intrinsic clearance (microsomal CLint) was 17 µL/min/mg in data set [8] and 13 µL/min/mg in data set [6]. Also, the apparent permeability from apical to basolateral (Papp A→B) in [4] turned out to be 43 ×10⁻⁶ cm/s. The compound further showed a solubility in [9] of 70 µM (≈ 32.7 µg/mL).
The compound `COc1ccc(-c2nnc(C(=O)N3CC(Oc4ccc(CN5CC6(CCCO6)C5)cc4)C3)o2)cc1` displayed a pH-dependent lipophilicity (logD) in data set [1] of 2.7. Besides, the pKa in [2] turned out to be 8.4. In data set [5], this compound returned a 50% inhibitory concentration (IC50) of 2 nM. The Papp A→B in [4] worked out at 41 ×10⁻⁶ cm/s. In data set [6], the microsomal CLint was 29 µL/min/mg.
In data set [1], `Cn1nc(C(=O)N2CCC(Oc3ccc(CN4CCCC4)cc3)CC2)cc1-c1ccccc1` came in with a pH-dependent lipophilicity (logD) of 2.2. For the same compound, the solubility in [9] came out at 930 µM (≈ 413 µg/mL). The microsomal CLint in data set [6] stood at 7 µL/min/mg.
Compound `COc1ccc(-c2nnc(C(=O)N3CC(Oc4ccc(CN5CCCOCC5)cc4)C3)o2)cc1` registered a logD in data set [1] of 2.4. Also, in data set [2], the pKa came out at 8.1. Besides, the apical-to-basolateral permeability (Papp A→B) in [4] was determined as 51 ×10⁻⁶ cm/s. The compound also yielded a microsomal CLint in data set [6] of 37 µL/min/mg.
As for `COc1ccc(-c2nnc(C(=O)N3CCC(Oc4ccc(CN5CC(O)C(C)(C)C5)cc4)CC3)o2)cc1` (stereo not given), in [1], the log distribution coefficient (logD) was 2.6. The pKa in [2] came to 8.9. This compound also gave an IC50 in data set [3] of 91 nM. This compound also yielded a Papp A→B in data set [4] of 34 ×10⁻⁶ cm/s. In data set [6], the microsomal CLint worked out at 19 µL/min/mg.
As for `O=C(c1cc(-c2ccccc2)on1)N1CCC(Oc2ccc(CN3CCCC3)cc2)CC1`, the pH-dependent lipophilicity (logD) in [1] was determined as 3. The compound also displayed a solubility in data set [9] of 198 µM (≈ 85.4 µg/mL).
In [1], `COc1ccc(-c2nnc(C(=O)N3CC(Oc4ccc(CN5CC6(CCOC6)C5)cc4)C3)o2)cc1` had a pH-dependent lipophilicity (logD) of 2.2. This compound came in with a pKa in [2] of 8.6. Also, in [5], it took 2 nM to reach half-maximal inhibition (IC50). Besides, the apparent permeability from apical to basolateral (Papp A→B) in data set [4] stood at 60 ×10⁻⁶ cm/s. In data set [6], this compound yielded a microsomal CLint of 14 µL/min/mg.
As for `CC1(O)CCN(Cc2ccc(OC3CN(C(=O)c4nnc(-c5ccccc5)o4)C3)cc2)C1` (stereo not given), in [1], the pH-dependent lipophilicity (logD) came to 1.45. In data set [2], the pKa came out at 9. Moreover, in data set [5], the midpoint of inhibition, the IC50, lay at 146 nM. The same compound had an apical-to-basolateral permeability (Papp A→B) in data set [4] of 34 ×10⁻⁶ cm/s. Further, in data set [7], the efflux ratio amounted to 0.26.
In the case of `COc1ccc(-c2nnc(C(=O)N3CCC(Oc4ccc(CN5CCCC5)nc4)CC3)o2)cc1`, in data set [1], the logD was found to be 1.8. In [2], this compound showed a pKa of 9.1. The Papp A→B in data set [4] was 31 ×10⁻⁶ cm/s.
Compound `COc1ccc(-c2nnc(C(=O)N3CC(Oc4ccc(CN(C)C)c(C)c4)C3)o2)cc1` registered a logD in data set [1] of 2. In data set [2], this compound registered a pKa of 9.3. Further, in data set [5], the IC50 stood at 1 nM. In addition, the intrinsic clearance (microsomal CLint) came out at 149 µL/min/mg in [8] and 22 µL/min/mg in data set [6]. In data set [4], the Papp A→B is 54 ×10⁻⁶ cm/s. Besides, the efflux ratio in data set [7] was determined as 0.3.
For the compound `O=C(c1nnc(-c2ccccc2)o1)N1CC(Oc2ccc(CN3CC4(CCCO4)C3)cc2)C1`, in data set [1], the logD was found to be 2.6. The compound further yielded a pKa in data set [2] of 8.4. Besides, the intrinsic metabolic clearance (microsomal CLint) in data set [6] was found to be 6 µL/min/mg.
In the case of `COc1ccc(-c2nnc(C(=O)N3CC(Oc4ccc(CN(C)CC5(C)COC5)cc4)C3)o2)cc1`, in [1], the logD was found to be 4.1. Further, in [2], the pKa was 8. In [6], this compound displayed an intrinsic clearance (microsomal CLint) of 110 µL/min/mg.
In the same order, the values of `COc1ccc(-c2nnc(C(=O)N3CC(Oc4ccc(CN5CC(OC)C5)cc4)C3)o2)cc1` are 2.3, 8.5 and 51 µL/min/mg.

Source of the values: ChEMBL document CHEMBL3784951, “Discovery of (3-(4-(2-Oxa-6-azaspiro[3.3]heptan-6-ylmethyl)phenoxy)azetidin-1-yl)(5-(4-methoxyphenyl)-1,3,4-oxadiazol-2-yl)methanone (AZD1979), a Melanin Concentrating Hormone Receptor 1 (MCHr1) Antagonist with Favorable Physicochemical Properties” (J Med Chem, 2016).
